Columns and labels:
[1] = system: acidic lysosomes; assay: Lysosome staining with LysoTracker Red DND-99 dye; format: cell-based, human
Method: To examine the effects of ambroxol on autophagy-lysosomal pathway, the autophagy dye […] and lysosome marker LysoTracker Red were used. […] The autophagy fusion was studied using autophagy detection reagent […] fluorescence probe stained autophagosome on late-phase autophagy when autophagosome fused with a lysosome. Lysosome organelles were analyzed using LysoTracker Red DND-99 red-fluorescent dye which stained acidic organelles in live cells. PBMC were isolated from the patient with MPS III-B disease, incubated five days with ambroxol, and then were stained. […] Macrophages derived from a patient with MPS III Type C.

[2] = system: lysosomal integral membrane protein-2 (LIMP-2); conditions: cited from earlier work
[3] = system: heparan-alpha-glucosaminide N-acetyltransferase (HGSNAT); assay: HGSNAT enzyme activity in PBMC; format: cell-based, human
Method: PBMC were cultured for 5 days with an increasing concentration of ambroxol.
HGSNAT enzyme activity was measured and compared as negative control versus ambroxol incubated PBMC derived from a patient with MPS III Type C (FIG. 2).

[4] = system: PBMC; assay: ATP production of ambroxol incubated PBMC; format: cell-based, human; conditions: 100 μM ambroxol
[5] = system: autophagy fusion with the lysosome; assay: Autophagy fusion staining with DALGreen detection reagent; format: cell-based, human
[6] = system: PBMC; assay: Cell viability of ambroxol incubated PBMC; format: cell-based, human; conditions: 100 μM ambroxol
[7] = system: N-acetyl-alpha-glucosaminidase (NAGLU); assay: NAGLU enzyme activity in patient-derived PBMC; format: cell-based, human; conditions: PBMC from MPS III Type B patient, 5 days incubation
Method: PBMC were cultured for 5 days with an increasing concentration of ambroxol. […] We measured enzyme activity in PBMC (peripheral blood mononuclear cell) derived from MPS III Type B patients with NAGLU enzyme deficiency. After incubation for five days in the presence of 1, 10, and 100 μM of ambroxol, NAGLU enzyme activity was measured and compared negative control versus ambroxol incubated cells (FIG. 1). […] PBMC were cultured for 5 days with an increasing concentration of ambroxol.

[8] = system: heparan sulfate (HS); assay: Heparan sulfate ELISA in PBMC cell extracts; format: cell-based, human
Method: To investigate the effect of ambroxol on HS degradation, the heparin sulfate ELISA assay (Aviva Systems Siology) was assessed. PBMC derived from healthy controls and MPS III patients were incubated with a concentration of ambroxol 1, 10 and 100 μM. PBMC after five days of incubation were collected and heparan sulfate levels were measured in cells extracts.

[9] = target: T1, glucocerebrosidase (GCase) (Homo sapiens, UniProt P04062); conditions: pH 4.3, near lysosomal pH; cited from earlier work
T1 sequence (P04062 40-536): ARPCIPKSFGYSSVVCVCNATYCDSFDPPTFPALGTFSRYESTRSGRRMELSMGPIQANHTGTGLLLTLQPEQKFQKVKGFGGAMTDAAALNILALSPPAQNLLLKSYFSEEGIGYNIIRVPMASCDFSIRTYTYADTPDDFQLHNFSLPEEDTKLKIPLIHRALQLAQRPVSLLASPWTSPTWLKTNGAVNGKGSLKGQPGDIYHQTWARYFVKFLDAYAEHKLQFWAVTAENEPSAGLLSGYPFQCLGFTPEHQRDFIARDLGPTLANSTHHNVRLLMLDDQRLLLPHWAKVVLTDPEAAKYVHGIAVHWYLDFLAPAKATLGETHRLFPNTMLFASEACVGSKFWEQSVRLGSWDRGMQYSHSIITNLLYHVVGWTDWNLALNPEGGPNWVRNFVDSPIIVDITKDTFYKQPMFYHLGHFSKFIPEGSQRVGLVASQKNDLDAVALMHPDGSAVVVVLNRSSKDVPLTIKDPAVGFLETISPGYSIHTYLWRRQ

[10] = PBMC from patient with MPS III-B, five days with ambroxol
[11] = macrophages from patient with MPS III Type C, 5 days with ambroxol

ATP production [4]: inhibition
SMILES: Nc1c(Br)cc(Br)cc1CN[C@H]1CC[C@H](O)CC1 [ambroxol, trans-4-(2-Amino-3,5-dibromobenzylamino)-cyclohexanol]
proportion of acidic lysosomes (LysoTracker Red staining) [1, 10]: significant increasing
lysosome function ([1]; cells derived from healthy controls and MPS III-B, MPS III-C and MPS III-D patients (summary)): activates
proportion of acidic lysosomes (LysoTracker Red staining) [1, 11]: significant increasing
LIMP-2 level [2]: increased
HGSNAT activity ([3]; PBMC from a healthy subject, ambroxol incubation (data not shown)): no increase
HGSNAT activity ([3]; PBMC from a patient with MPS III Type C, 5 days ambroxol incubation): no increase
autophagy fusion (DALGreen staining) ([5]; PBMC from healthy control, five days with ambroxol): significant increase
activity of autophagy fusion (DALGreen staining) [5, 10]: increasing
autophagy fusion (DALGreen staining) ([5]; PBMC from two patients with MPS III-D, five days with ambroxol): significant increase
activity of autophagy fusion (DALGreen staining) [5, 11]: increasing
cell viability [6]: decreasing
NAGLU enzyme activity increase vs negative control ([7]; 1 μM ambroxol): 15%
NAGLU enzyme activity increase vs negative control ([7]; 10 μM ambroxol): 15%
NAGLU activity ([7]; 100 μM ambroxol): Decreasing
heparan sulfate (HS) level ([8]; PBMC from MPS III-A patient, 5 days with ambroxol, vs negative control): decreased
heparan sulfate (HS) level ([8]; PBMC from MPS III-B patient, 5 days, 10 μM ambroxol): decreased
heparan sulfate (HS) level ([8]; PBMC from MPS III-B patient, 5 days, 100 μM ambroxol): decreased
heparan sulfate (HS) level ([8]; PBMC from MPS III-C patient, 5 days with ambroxol, vs negative control): decreasing
heparan sulfate (HS) level ([8]; PBMC from MPS III-D patient, 5 days, 10 μM ambroxol): decreased
heparan sulfate (HS) level ([8]; PBMC from MPS III-D patient, 5 days, 100 μM ambroxol): decreased
heparan sulfate (HS) level ([8]; PBMC from healthy controls (n=4), 5 days with ambroxol, vs negative control): decreased
effect on GCase enzyme [9]: activator

From US12364673B2, “Methods and compositions for treating lysosomal storage disorders: ambroxol as treatment agent for Mucopolysaccharidoses III (Sanfilippo syndrome)” (Lysosomal and Rare Disorders Research and Treatment Center, …, priority 2019, dated 2025)
